Results reported in ChEMBL document CHEMBL3286253, “Design, synthesis, and structure-activity relationship studies of novel thioether pleuromutilin derivatives as potent antibacterial agents” (J Med Chem, 2014).
In brackets after ≈: the same amount, converted by molar mass.

What was measured:
Staphylococcus aureus [1] = test: Antibacterial activity against methicillin-resistant Staphylococcus aureus after 16 hrs by agar dilution method; type: functional
Streptococcus pneumoniae = test: Antibacterial activity against penicillin-resistant Streptococcus pneumoniae after 16 hrs by agar dilution method; type: functional
[2] = test system: Staphylococcus epidermidis; test: Antibacterial activity against methicillin-sensitive Staphylococcus epidermidis after 16 hrs by agar dilution method; type: functional
Staphylococcus aureus [3] = test: Antibacterial activity against Staphylococcus aureus […] after 16 hrs by agar dilution method; type: functional
[4] = test system: Staphylococcus epidermidis; test: Antibacterial activity against methicillin-resistant Staphylococcus epidermidis after 16 hrs by agar dilution method; type: functional
Staphylococcus aureus [5] = test: Antibacterial activity against methicillin-sensitive Staphylococcus aureus after 16 hrs by agar dilution method; type: functional
[6] = Mean residence time in Sprague-Dawley rat at 2 mg/kg, iv administered as cassette dosing; type: ADME, organism-based; parameters: dose 2 mg/kg, route intravenous; settings: in vivo
[7] = Clearance in Sprague-Dawley rat at 2 mg/kg, iv administered as cassette dosing; type: ADME, organism-based; parameters: dose 2 mg/kg, route intravenous; settings: in vivo
[8] = Elimination half life in Sprague-Dawley rat at 2 mg/kg, iv administered as cassette dosing; type: ADME, organism-based; parameters: dose 2 mg/kg, route intravenous; settings: in vivo, read-out: beta t1/2 (converted)
[9] = Volume of distribution at steady state in Sprague-Dawley rat at 2 mg/kg, iv administered as cassette dosing; type: ADME, organism-based; parameters: dose 2 mg/kg, route intravenous; settings: in vivo, read-out: Vdss
[10] = AUC (0 to t) in Sprague-Dawley rat at 2 mg/kg, iv administered as cassette dosing; type: ADME, organism-based; parameters: dose 2 mg/kg, route intravenous; settings: plasma

Q: Which results are given for `C=C[C@]1(C)C[C@@H](OC(=O)CSc2cncc(NC(=O)CN3CCC[C@H]3CN)c2)[C@]2(C)[C@H](C)CC[C@]3(CCC(=O)[C@H]32)[C@@H](C)[C@@H]1O`?
A: MIC (Staphylococcus aureus [1]): 1 µg/mL (≈ 1.6 µM); MIC (Streptococcus pneumoniae): 0.063 µg/mL (≈ 0.101 µM); MIC [2]: 0.5 µg/mL (≈ 0.798 µM); MIC (Staphylococcus aureus [3]): 0.25 µg/mL (≈ 0.399 µM); MIC [4]: 0.5 µg/mL (≈ 0.798 µM); MIC (Staphylococcus aureus [5]): 0.5 µg/mL (≈ 0.798 µM)

Q: Which MIC (Staphylococcus aureus [1]) does the source give for `C=C[C@]1(C)C[C@@H](OC(=O)CSc2ccc(N)cn2)[C@]2(C)[C@H](C)CC[C@]3(CCC(=O)[C@H]32)[C@@H](C)[C@@H]1O` here?
A: 0.063 µg/mL (≈ 0.129 µM)

Q: And the MIC (Streptococcus pneumoniae)?
A: 0.063 µg/mL (≈ 0.129 µM)

Q: And the MIC [2]?
A: 0.063 µg/mL (≈ 0.129 µM)

Q: And the MIC (Staphylococcus aureus [3])?
A: 0.125 µg/mL (≈ 0.257 µM)

Q: And the MIC [4]?
A: 0.063 µg/mL (≈ 0.129 µM)

Q: What about the MIC (Staphylococcus aureus [5]) of the same compound?
A: 0.063 µg/mL (≈ 0.129 µM)

Q: Which results are given for `C=C[C@]1(C)C[C@@H](OC(=O)CSc2cncc(NC(=O)[C@@H](N)CC(C)C)c2)[C@]2(C)[C@H](C)CC[C@]3(CCC(=O)[C@H]32)[C@@H](C)[C@@H]1O`?
A: MRT [6]: 21 min; MIC (Staphylococcus aureus [1]): 0.063 µg/mL (≈ 0.105 µM); MIC (Streptococcus pneumoniae): 0.063 µg/mL (≈ 0.105 µM); MIC [2]: 0.063 µg/mL (≈ 0.105 µM); clearance [7]: 488 mL/min/kg; half-life [8]: 37.8 min; Vd [9]: 10.3 L/kg; MIC (Staphylococcus aureus [3]): 0.031 µg/mL (≈ 0.0517 µM); MIC [4]: 0.063 µg/mL (≈ 0.105 µM); AUC(0-t) [10]: 69 ng·h/mL; MIC (Staphylococcus aureus [5]): 0.063 µg/mL (≈ 0.105 µM)

Q: Which MIC (Staphylococcus aureus [1]) does the source give for `C=C[C@]1(C)C[C@@H](OC(=O)CSc2cncc(NC(=O)CN(C)C)c2)[C@]2(C)[C@H](C)CC[C@]3(CCC(=O)[C@H]32)[C@@H](C)[C@@H]1O` here?
A: 0.125 µg/mL (≈ 0.219 µM)

Q: What about the MIC (Streptococcus pneumoniae) of the same compound?
A: 0.125 µg/mL (≈ 0.219 µM)

Q: And the MIC [2]?
A: 0.125 µg/mL (≈ 0.219 µM)

Q: And the MIC (Staphylococcus aureus [3])?
A: 0.5 µg/mL (≈ 0.874 µM)

Q: What about the MIC [4] of the same compound?
A: 0.125 µg/mL (≈ 0.219 µM)

Q: And the MIC (Staphylococcus aureus [5])?
A: 0.5 µg/mL (≈ 0.874 µM)

Q: For `C=C[C@]1(C)C[C@@H](OC(=O)CSc2ccc([N+](=O)[O-])cn2)[C@]2(C)[C@H](C)CC[C@]3(CCC(=O)[C@H]32)[C@@H](C)[C@@H]1O`, which MIC (Staphylococcus aureus [1]) is on record?
A: 0.5 µg/mL (≈ 0.968 µM)

Q: And the MIC (Streptococcus pneumoniae)?
A: 0.5 µg/mL (≈ 0.968 µM)

Q: And the MIC [2]?
A: 0.25 µg/mL (≈ 0.484 µM)

Q: And the MIC (Staphylococcus aureus [3])?
A: 1 µg/mL (≈ 1.94 µM)

Q: And the MIC [4]?
A: 0.25 µg/mL (≈ 0.484 µM)

Q: What about the MIC (Staphylococcus aureus [5]) of the same compound?
A: 0.25 µg/mL (≈ 0.484 µM)

Q: Which results are given for `C=C[C@]1(C)C[C@@H](OC(=O)CSc2ccncc2)[C@]2(C)[C@H](C)CC[C@]3(CCC(=O)[C@H]32)[C@@H](C)[C@@H]1O`?
A: MIC (Staphylococcus aureus [1]): 0.063 µg/mL (≈ 0.134 µM); MIC (Streptococcus pneumoniae): 0.063 µg/mL (≈ 0.134 µM); MIC [2]: 0.063 µg/mL (≈ 0.134 µM); MIC (Staphylococcus aureus [3]): 0.031 µg/mL (≈ 0.0657 µM); MIC [4]: 0.063 µg/mL (≈ 0.134 µM); MIC (Staphylococcus aureus [5]): 0.063 µg/mL (≈ 0.134 µM)

Q: Which MIC (Staphylococcus aureus [1]) does the source give for `C=C[C@]1(C)C[C@@H](OC(=O)CSc2cncc(NC(=O)CN3CCCCC3)c2)[C@]2(C)[C@H](C)CC[C@]3(CCC(=O)[C@H]32)[C@@H](C)[C@@H]1O` here?
A: 0.25 µg/mL (≈ 0.409 µM)

Q: What about the MIC (Streptococcus pneumoniae) of the same compound?
A: 0.125 µg/mL (≈ 0.204 µM)

Q: What about the MIC [2] of the same compound?
A: 0.125 µg/mL (≈ 0.204 µM)

Q: What about the MIC (Staphylococcus aureus [3]) of the same compound?
A: 0.125 µg/mL (≈ 0.204 µM)

Q: And the MIC [4]?
A: 0.125 µg/mL (≈ 0.204 µM)

Q: And the MIC (Staphylococcus aureus [5])?
A: 0.125 µg/mL (≈ 0.204 µM)

Q: With `C=C[C@]1(C)C[C@@H](OC(=O)CSc2cncc(NC(=O)[C@@H](N)C(C)C)c2)[C@]2(C)[C@H](C)CC[C@]3(CCC(=O)[C@H]32)[C@@H](C)[C@@H]1O` as the compound, how does the MIC (Staphylococcus aureus [1]) read?
A: 0.125 µg/mL (≈ 0.213 µM)

Q: And the MIC (Streptococcus pneumoniae)?
A: 0.125 µg/mL (≈ 0.213 µM)

Q: What about the MIC [2] of the same compound?
A: 0.125 µg/mL (≈ 0.213 µM)

Q: And the MIC (Staphylococcus aureus [3])?
A: 0.25 µg/mL (≈ 0.427 µM)

Q: What about the MIC [4] of the same compound?
A: 0.125 µg/mL (≈ 0.213 µM)

Q: What about the MIC (Staphylococcus aureus [5]) of the same compound?
A: 0.125 µg/mL (≈ 0.213 µM)

Q: What does the source list for `C=C[C@]1(C)C[C@@H](OC(=O)CSc2cncc(NC(=O)CN3CCCC(CO)C3)c2)[C@]2(C)[C@H](C)CC[C@]3(CCC(=O)[C@H]32)[C@@H](C)[C@@H]1O` (stereo not given in full)?
A: MIC (Staphylococcus aureus [1]): 0.063 µg/mL (≈ 0.0981 µM); MIC (Streptococcus pneumoniae): 0.063 µg/mL (≈ 0.0981 µM); MIC [2]: 0.063 µg/mL (≈ 0.0981 µM); MIC (Staphylococcus aureus [3]): 0.063 µg/mL (≈ 0.0981 µM); MIC [4]: 0.063 µg/mL (≈ 0.0981 µM); MIC (Staphylococcus aureus [5]): 0.063 µg/mL (≈ 0.0981 µM)

Q: Which MIC (Staphylococcus aureus [1]) does the source give for `C=C[C@]1(C)C[C@@H](OC(=O)CSc2ncccc2[N+](=O)[O-])[C@]2(C)[C@H](C)CC[C@]3(CCC(=O)[C@H]32)[C@@H](C)[C@@H]1O` here?
A: 0.063 µg/mL (≈ 0.122 µM)

Q: And the MIC (Streptococcus pneumoniae)?
A: 0.125 µg/mL (≈ 0.242 µM)

Q: What about the MIC [2] of the same compound?
A: 0.125 µg/mL (≈ 0.242 µM)

Q: What about the MIC (Staphylococcus aureus [3]) of the same compound?
A: 0.125 µg/mL (≈ 0.242 µM)

Q: And the MIC [4]?
A: 0.063 µg/mL (≈ 0.122 µM)

Q: What about the MIC (Staphylococcus aureus [5]) of the same compound?
A: 0.125 µg/mL (≈ 0.242 µM)
